Measured values published in ChEMBL document CHEMBL1136522, “Redefining the structure-activity relationships of 2,6-methano-3-benzazocines. Part 2: 8-formamidocyclazocine analogues” (Bioorg Med Chem Lett, 2003).
pKi: −log10 of the molar value.

How the values were obtained:
[1] = target: T1, Mu-type opioid receptor (Cavia porcellus, UniProt P97266); assay: Binding affinity towards Opioid receptor mu 1 using [3H]DAMGO as radioligand
[2] = target: T1, Mu-type opioid receptor; assay: Binding affinity was determined towards opioid receptor mu1 using [3H]DAMGO as radioligand
[3] = target: Kappa-type opioid receptor (Cavia porcellus, UniProt P41144); assay: Binding affinity was determined towards opioid receptor kappa 1 using [3H]U-69593 as radioligand
[4] = Binding affinity was determined towards Opioid receptor delta 1 using [3H]naltrindole as radioligand

T1 sequence (P97266 whole entry): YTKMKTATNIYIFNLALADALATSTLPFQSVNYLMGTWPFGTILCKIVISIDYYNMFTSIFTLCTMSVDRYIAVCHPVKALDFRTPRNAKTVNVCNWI
Kappa-type opioid receptor, sequence (P41144 whole entry): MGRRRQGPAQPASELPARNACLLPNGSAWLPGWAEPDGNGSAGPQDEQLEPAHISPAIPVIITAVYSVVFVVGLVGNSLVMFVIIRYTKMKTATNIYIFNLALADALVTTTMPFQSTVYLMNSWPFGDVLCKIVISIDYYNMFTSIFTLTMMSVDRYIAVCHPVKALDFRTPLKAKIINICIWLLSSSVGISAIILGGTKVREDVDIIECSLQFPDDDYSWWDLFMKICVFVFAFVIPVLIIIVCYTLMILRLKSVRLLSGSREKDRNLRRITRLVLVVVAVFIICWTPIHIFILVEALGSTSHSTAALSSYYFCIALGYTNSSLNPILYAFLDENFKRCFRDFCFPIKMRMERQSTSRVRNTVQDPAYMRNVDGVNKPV

`C[C@H]1[C@H]2Cc3ccc(Nc4ccccc4)cc3[C@@]1(C)CCN2CC1CC1` gave a pKi [1] of ~8.89.
For `C[C@H]1C2Cc3ccc(N(C)C=O)cc3[C@@]1(C)CCN2CC1CC1`, the pKi [2] was 6.26 and the pKi [3] was 6.70.
For `O=CNc1ccc2c3c1O[C@H]1C(=O)CC[C@@]4(O)[C@@H](C2)N(CC2CC2)CC[C@]314`, the pKi [2] was 8.08 and the pKi [3] was 8.38.
`CC[C@@]12CCN(CC3CC3)C(C(=O)c3ccc(NC=O)cc31)[C@@H]2C` gave a pKi [2] of 8.21 and a pKi [3] of 8.92.
Work on `C[C@H]1C2Cc3ccc(NCc4ccccc4)cc3[C@@]1(C)CCN2CC1CC1` yielded a pKi [1] of ~8.89.
With `C[C@H]1C2Cc3ccc(NC(=O)c4ccccc4)cc3[C@@]1(C)CCN2CC1CC1` the pKi [2] was 6.24 and the pKi [3] was 6.09.
Molecule `C[C@H]1C2Cc3ccc(NC=O)cc3[C@@]1(C)CCN2CC1CC1` has a pKi [2] of 8.72 and a pKi [3] of 9.07.
With `CC(=O)Nc1ccc2c(c1)[C@@]1(C)CCN(CC3CC3)C(C2)[C@@H]1C` the pKi [2] was 6.62 and the pKi [3] was 6.89.
`NC(=O)c1ccc2c3c1O[C@H]1C(=O)CC[C@@]4(O)[C@@H](C2)N(CC2CC2)CC[C@]314` gave a pKi [4] of 6.96.
`C[C@H]1[C@H]2Cc3ccc(NC=O)cc3[C@]1(C)CCN2CC1CC1` gave a pKi [2] of 8.96 and a pKi [3] of 9.31.
With `C[C@H]1C2Cc3ccc(C(N)=O)cc3[C@@]1(C)CCN2CC1CC1` the pKi [4] was 8.08.
Work on `Nc1ccc2c3c1O[C@H]1C(=O)CC[C@@]4(O)[C@@H](C2)N(CC2CC2)CC[C@]314` yielded a pKi [2] of 8.25 and a pKi [3] of 8.24.
For `CC[C@@]12CCN(CC3CC3)C(C(=O)c3ccc(C(N)=O)cc31)[C@@H]2C`, the pKi [4] was 8.01.
In the case of `C[C@@H]1C2Cc3ccc(NC=O)cc3C1(C)CCN2CC1CC1` (single isomer, unassigned), the pKi [2] was 5.64 and the pKi [3] was 6.05.
`C[C@H]1[C@H]2Cc3ccc(O)cc3C1(C)CCN2CC1CC1` (single isomer, unassigned) [CYCLAZOCINE] showed a pKi [4] of 8.96.
